# Laboratory results taken from article PMC12431657, “Discovery and mechanistic insights of dibenzoylmethane as a broad spectrum inhibitor of coronavirus” (PLOS Pathogens, 2025).
# Several values for one entry are separate records, joined by “and”; a condition that tells them apart may be missing. Equal values may be shown once. Read-outs that look alike come from different tables or passages of the source.
# Assays:
# HCoV-OC43 [1] = test: Antiviral activity in vitro, qRT-PCR, HCoV-OC43 in RD cells; assay type: cell-based; settings: for EC50 (OC43, RD): inhibition at the concentration: replicates
# HCoV-OC43 [2] = assay type: cell-based
# HCoV-OC43 [3] = test: Cytokine gene expression in brains and spinal cords of infected mice; assay type: in vivo, BALB/c suckling mice; settings: for CCL2 gene expression / CXCL10 gene expression / IL1B gene expression / IL6 gene expression / TNF gene expression: one value per animal
# HCoV-OC43 [4] = test: Antiviral activity of DBM in the presence of IFN signalling suppressants; assay type: cell-based
# Method: Fig 6 DBM-mediated downregulation of caspase-6 restores IFN signalling suppressed by the coronavirus nucleocapsid protein. A) Intracellular levels of HCoV-OC43 nucleocapsid proteins and caspase-6 in HCoV-OC43-infected cells treated with serially diluted DBM or Z-VEID-FMK. Cells were pretreated with gradient-diluted DBM or Z-VEID-FMK prior to viral infection. B) Inhibitory effects of DBM against HCoV-OC43 and EV71. Cells were pre-treated with gradient-diluted DBM for 1 hour before inoculated with HCoV-OC43 or EV71, respectively. C) Attenuation of antiviral effects of DBM in IFN signalling-deficient cell lines. HEK293T-AT and Vero E6 cells were pre-treated with gradient-diluted DBM for 1 hour before infection. […] Cells were pretreated with gradient-diluted DBM or Z-VEID-FMK for 24 h, and then transfected with coronaviruses nucleocapsid proteins expression plasmid, and after 16 h of transfection, cells were treated with DMSO or STS. E) DBM alleviated the suppression of IFNB1 expression induced by coronaviruses nucleocapsid proteins and caspase-6. Cells were pretreated with DMSO or DBM for 24 h, subsequently, transfected with Poly(I:C) and plasmids. F) Impact of IFN signalling suppressants on the antiviral activity of DBM. Cells were pretreated with DMSO, Ruxolitinib or IFN alpha-IFNAR-IN-1 hydrochloride, respectively, for 1 hour. Subsequently, a gradient dilution of DBM was added to the medium, and then HCoV-OC43 was inoculated into the cells. Data were statistically analysed with Student’s T test. *: p ≤ 0.05, **: p ≤ 0.01, ***: p ≤ 0.001, ****: p ≤ 0.0001; ns, not significant. The experiments were repeated three times independently with similar results.
# On the basis of this finding, we hypothesized that DBM downregulates caspase-6, reduces the cleavage of nucleocapsid proteins, and thereby enhances IFN signalling to inhibit viral replication. To test this hypothesis, we incubated cells transfected with plasmids expressing coronavirus nucleocapsid proteins in the presence or absence of DBM or Z-VEID-FMK. […] As the reduction in cleaved nucleocapsid protein fragments could theoretically […] IFN signalling, we sought to investigate the relationship between DBM treatment and IFN signalling. To this end, we further transfected cells with plasmids expressing both caspase-6 and coronavirus nucleocapsid proteins, and subsequently incubated the cells with or without DBM. […] Whereas the other two apoptosis-executing caspases, caspase-3 and caspase-7, could not inhibit IFN signalling in a similar system (S8C Fig). Furthermore, we examined the expression of IFNB1 and its downstream IFN-stimulated genes following DBM treatment in the context of HCoV-OC43 infection (S8D and S8E Fig).
structure (smiles),measurement,setting,value
"O=C(CC(=O)c1ccccc1)c1ccccc1 [DBM, dibenzoylmethane]",EC50,"HCoV-OC43 [1]; Betacoronavirus 1, OC43, RD, 24 h, read-out: EC50 HCoV-OC43 (RD)",350 nM
same,Viral RNA copies (Fig6B),"HCoV-OC43 [1]; OC43, concentration 4",7.43E+03 and 9.55E+03 and 9.54E+03
same,Viral RNA copies (Fig6B),"HCoV-OC43 [1]; OC43, concentration 20",3.88E+03 and 6.38E+03 and 7.34E+03
same,"EC50 (OC43, RD): inhibition at the concentration",HCoV-OC43 [1]; conc. 0.1 (unit not given),-75.5 and -76.6 and -100.8
same,"EC50 (OC43, RD): inhibition at the concentration",HCoV-OC43 [1]; conc. 0.2 (unit not given),23.1 and 21.4 and 22.1
same,"EC50 (OC43, RD): inhibition at the concentration",HCoV-OC43 [1]; conc. 0.7 (unit not given),88.5 and 91.5 and 92
same,"EC50 (OC43, RD): inhibition at the concentration",HCoV-OC43 [1]; conc. 2.2 (unit not given),99.6
same,"EC50 (OC43, RD): inhibition at the concentration",HCoV-OC43 [1]; conc. 6.7 (unit not given),99.9
same,"EC50 (OC43, RD): inhibition at the concentration",HCoV-OC43 [1]; conc. 20 (unit not given),99.8
same,antiviral activity in CASP6 knockout cell pools,HCoV-OC43 [2]; RD cells,decreased
same,Viral inhibition (Fig5K),"HCoV-OC43 [2]; concentration 2, RD-CASP6 KO cells",35.0 and 37.4 and 35.2
same,Viral inhibition (Fig5K),"HCoV-OC43 [2]; concentration 2, RD-Scramble cells",87.9 and 90.6 and 92.3
same,Viral inhibition (Fig5K),"HCoV-OC43 [2]; concentration 20, RD-Scramble cells",81.0 and 81.9 and 83.3
same,CCL2 gene expression,"HCoV-OC43 [3]; BRAIN, DBM 100 mpk",1.51 and 1.54 and 1.00 and 1.20 and 1.62 and 1.74
same,CXCL10 gene expression,"HCoV-OC43 [3]; BRAIN, DBM 100 mpk",2.90 and 3.33 (2×) and 2.35 and 2.81 and 3.27
same,IL1B gene expression,"HCoV-OC43 [3]; BRAIN, DBM 100 mpk",1.23 and 1.14 (2×) and 0.87 and 0.89 and 1.66
same,IL6 gene expression,"HCoV-OC43 [3]; BRAIN, DBM 100 mpk",0.95 and 1.15 and 0.67 and 0.94 and 1.52 and 1.33
same,TNF gene expression,"HCoV-OC43 [3]; BRAIN, DBM 100 mpk",1.36 (2×) and 0.92 and 0.88 and 1.72 and 1.28
same,CCL2 gene expression,"HCoV-OC43 [3]; BRAIN, DBM 200 mpk",1.46 and -0.88 and 0.68 and 1.08 and 1.88
same,CXCL10 gene expression,"HCoV-OC43 [3]; BRAIN, DBM 200 mpk",3.15 and -0.32 and 2.05 and 2.44 and 3.30
same,IL1B gene expression,"HCoV-OC43 [3]; BRAIN, DBM 200 mpk",1.27 and -1.00 and 0.43 and 0.66 and 1.46
same,IL6 gene expression,"HCoV-OC43 [3]; BRAIN, DBM 200 mpk",1.26 and -0.71 and 0.30 and 0.34 and 1.23
same,TNF gene expression,"HCoV-OC43 [3]; BRAIN, DBM 200 mpk",1.14 and -1.10 and 0.49 and 0.84 and 1.31
same,CCL2 gene expression,"HCoV-OC43 [3]; BRAIN, DBM 500 mpk",1.19 and 0.29 and 0.89 and 1.43
same,CXCL10 gene expression,"HCoV-OC43 [3]; BRAIN, DBM 500 mpk",2.39 and 1.30 and 1.07 and 2.91
same,IL1B gene expression,"HCoV-OC43 [3]; BRAIN, DBM 500 mpk",1.46 and 0.54 and 0.85 and 1.71
same,IL6 gene expression,"HCoV-OC43 [3]; BRAIN, DBM 500 mpk",0.93 and 0.71 and 0.92 and 1.17
same,TNF gene expression,"HCoV-OC43 [3]; BRAIN, DBM 500 mpk",1.05 and 0.22 and 0.74 and 1.31
same,inflammation (cytokine gene expression) in the brain and spinal cord,"HCoV-OC43 [3]; CCL2, CXCL10, IL-1β, IL-6, TNF-α, 5 dpi",dramatically reduced inflammation
same,CCL2 gene expression,"HCoV-OC43 [3]; SPINAL CORD, DBM 100 mpk",0.10 and -0.50 and -0.53 and -0.21 and -0.06 and -0.89
same,CXCL10 gene expression,"HCoV-OC43 [3]; SPINAL CORD, DBM 100 mpk",2.03 and 1.48 and 0.34 and 0.55 and 1.02 and 0.66
same,IL1B gene expression,"HCoV-OC43 [3]; SPINAL CORD, DBM 100 mpk",-0.76 and -1.28 and -0.98 and -0.97 and -0.64 and -1.78
same,IL6 gene expression,"HCoV-OC43 [3]; SPINAL CORD, DBM 100 mpk",1.39 and -0.72 and 0.41 and 1.02 and 0.87 and 0.47
same,TNF gene expression,"HCoV-OC43 [3]; SPINAL CORD, DBM 100 mpk",0.47 and -0.10 and -0.18 and 0.26 and 0.80 and -0.63
same,CCL2 gene expression,"HCoV-OC43 [3]; SPINAL CORD, DBM 200 mpk",-0.12 and -1.42 and -0.38 and -0.65 and 0.03
same,CXCL10 gene expression,"HCoV-OC43 [3]; SPINAL CORD, DBM 200 mpk",1.47 and -1.58 and 0.55 and 0.23 and 1.42
same,IL1B gene expression,"HCoV-OC43 [3]; SPINAL CORD, DBM 200 mpk",-0.83 and -1.94 and -0.93 and -0.47 and -0.26
same,IL6 gene expression,"HCoV-OC43 [3]; SPINAL CORD, DBM 200 mpk",0.59 and -0.46 and 0.79 and 0.02 and 0.49
same,TNF gene expression,"HCoV-OC43 [3]; SPINAL CORD, DBM 200 mpk",-0.40 and -0.33 and -1.12 and -0.23 and 0.63
same,CCL2 gene expression,"HCoV-OC43 [3]; SPINAL CORD, DBM 500 mpk",2.46 and 1.15 and -0.63 and 0.95
same,CXCL10 gene expression,"HCoV-OC43 [3]; SPINAL CORD, DBM 500 mpk",3.10 and 2.34 and 0.15 and 1.92
same,IL1B gene expression,"HCoV-OC43 [3]; SPINAL CORD, DBM 500 mpk",2.44 and 0.22 and -1.51 and 0.43
same,IL6 gene expression,"HCoV-OC43 [3]; SPINAL CORD, DBM 500 mpk",3.07 and 2.18 and -0.81 and 1.64
same,TNF gene expression,"HCoV-OC43 [3]; SPINAL CORD, DBM 500 mpk",3.77 and 1.80 and -0.57 and 1.44
same,Viral RNA copies (Fig6F),"HCoV-OC43 [4]; DBM 0.06, with DMSO",8575323 and 7173199 and 8361273
same,Viral RNA copies (Fig6F),"HCoV-OC43 [4]; DBM 0.06, with IFNi",714000 and 1370000 and 1200000
same,Viral RNA copies (Fig6F),"HCoV-OC43 [4]; DBM 0.19, with DMSO",4042565 and 5441926 and 4875856
same,Viral RNA copies (Fig6F),"HCoV-OC43 [4]; DBM 0.19, with IFNi",1160000 and 961000 and 754000
same,Viral RNA copies (Fig6F),"HCoV-OC43 [4]; DBM 0.19, with RUX",1920000 and 2400000 and 1530000
same,Viral RNA copies (Fig6F),"HCoV-OC43 [4]; DBM 0.56, with DMSO",380096 and 713734 and 725626
same,Viral RNA copies (Fig6F),"HCoV-OC43 [4]; DBM 0.56, with IFNi",1150000 and 922000 and 1030000
same,Viral RNA copies (Fig6F),"HCoV-OC43 [4]; DBM 0.56, with RUX",1380000 and 2020000 and 2160000
same,Viral RNA copies (Fig6F),"HCoV-OC43 [4]; DBM 1.67, with DMSO",91512 and 73409 and 91292
same,Viral RNA copies (Fig6F),"HCoV-OC43 [4]; DBM 1.67, with IFNi",807000 and 1340000
same,Viral RNA copies (Fig6F),"HCoV-OC43 [4]; DBM 1.67, with RUX",2040000 and 3700000
same,Viral RNA copies (Fig6F),"HCoV-OC43 [4]; DBM 5.00, with DMSO",87392 and 81273 and 92455
same,Viral RNA copies (Fig6F),"HCoV-OC43 [4]; DBM 5.00, with IFNi",1300000 and 976000 and 920000
same,Viral RNA copies (Fig6F),"HCoV-OC43 [4]; DBM 5.00, with RUX",1880000 and 1760000 and 2040000
same,"antiviral activity of DBM, cells pretreated with IFN alpha-IFNAR-IN-1 hydrochloride",HCoV-OC43 [4]; HCoV-OC43,markedly reduced
same,"antiviral activity of DBM, cells pretreated with ruxolitinib",HCoV-OC43 [4]; HCoV-OC43,markedly reduced
